From patent publication US20230165276A1, “NOVEL USE OF SUBSTITUTED 2H-CHROMENS AND THEIR DERIVATIVES” (DSM IP ASSETS B.V., priority 2018, published 2023)
Blank lines part the entries; values can stand above or below the molecule they belong to.

Legend:
[1] = Oxipres antioxidant efficacy value (EV) in poultry meal; conditions: 70° C., 5 bar oxygen, 130 hours, equimolar to BHT, EV relative to BHT (EV=1)
Method: (§1) Oxidative stability was assessed using an Oxipres (Mikrolab Aarhus A/S, Hojbjerg, Denmark). The ML OXIPRES® is designed to monitor the oxidation of heterogeneous products. Consumption of oxygen results in a pressure drop which is measured by means of pressure transducers. The samples are heated to accelerate the process and shorten the analysis time (Mikrolab Aarhus 2012).
(§2) Sample weights were 50 g. They were loaded into the Oxipres vessels and placed inside the stainless-steel pressure vessel and sealed. The pressure vessels were purged with pure oxygen and filled to an initial oxygen pressure of 5 bar and maintained at 70° C. during measurement (D. Ying, L. Edin, L. Cheng, L. Sanguansri, M. A. Augustin, LWT-Food Science and Technology 2015, 62, 1105-1111: “Enhanced oxidative stability of extruded product containing polyunsaturated oils.”).
(§3) The oxygen pressure was recorded as function of time. After sample load and temperature rise the pressure in the device is increasing within 10 hours. Thereafter it is decreasing. Consequently, the starting pressure is considered to be the pressure after 10 hours. The analysis ends after 130 hours at 70° C. The oxygen consumption ‘02’ of the tested sample is calculated as follows: […]
(§4) A factor of protection called ‘EV’ (Efficacy Value) was developed to quantify with a relative number (relative to BHT) the antioxidant effect of the tested candidates. EV was calculated as follows:
(§5) EV, being relative to BHT (3,5-di-tert-butyl-4-hydroxy-toluene) (EV=1), makes it possible to compare the antioxidant compounds in a defined feed application.
(§6) Compounds of formulae (1) to (7) were mixed each into the matrix 1, 2 or 3 (pet food, poultry meal, fish meal) in an equimolar ratio compared to BHT. Batches of 200 g feed were produced in order to handle a minimum of 30 mg of antioxidant. First, a 1% pre-dilution of the antioxidant with the feed material was made. Then this pre-dilution was added to the final batch, mixed, sieved (1.25 mm sieve) and mixed using a turbula® mixer. Thereafter 55 g of the final batch were packed into polyethylene bags and stored at 4° C. till time of Oxipres assay. Spare sample were stored at 4° C. An efficacy value 0.7 has been considered as acceptable, an efficacy value the efficacy value of alpha-tocopherol as good, and an efficacy value the efficacy value of BHT as very good.

[2] = Oxipres antioxidant efficacy value (EV) in fish meal; conditions: 70° C., 5 bar oxygen, 130 hours, equimolar to BHT, EV relative to BHT (EV=1)
Method: as §1, §2, §3, §4, §5, §6

Solubility in fish oil = format: physicochemical
Method: (§7) Two different levels of compound of formula (1) (0.5 and 2 mg/g) were used in 5 g of natural fish oil (Product Code: FG30TG) and used in the Oxidative Stability Instrument at 80° C. with the air flow rate of 40 psi. The solubility of different amounts and types of antioxidants used in 051 was checked before and after the application. […] Compound of formula (1) was used in the Oxidative Stability instruments under the same conditions used for fish oil evaluations. Also, the synergistic effect of compound of formula (1) with ascorbyl palmitate (AP) was determined using the OSI values. The polymers generated at the end of the experiment were determined by LC.

[3] = Storage stability study of fish oil (PV, p-AV, CD); conditions: 2 mg/g in FG30TG
Method: Tables 12, 13 and 14 show the PV (peroxide value), p-AV (p-anisidine value) and CD (conjugated dienoic acid in %) of the fish oil samples stabilized with compound of formula (1). For the storage stability study compound of formula (1) was used in fish oil at only 2 mg/g level. […] MNT had the lowest PV values. There was no considerable variation in p-AV and CD (Tables 13-14) during the storage.

[4] = Oil Stability Index (Oxidative Stability Instrument) in FG30TG fish oil
Method: Compound of formula (1) was evaluated primarily for its oxidative stability by the Oil Stability Index measurements.
as §7

[5] = Oxipres antioxidant efficacy value (EV) in pet food; conditions: 70° C., 5 bar oxygen, 130 hours, equimolar to BHT, EV relative to BHT (EV=1)
Method: as §1, §2
as §3, with “The analysis ends after 130 hours at 70° C.” left out
A factor of protection called ‘EV’ (Efficacy Value) was developed to quantify with a relative number (relative to BHT) the antioxidant effect of the tested candidates. EV was calculated as follows: […]

[6] = Oil Stability Index in crude algal oil
Method: as §7
This algal oil already contained about 1.6 mg/g of MNT.

[7] = Polymers generated at the end of the fish oil stabilization experiment (LC); conditions: 2 mg/g in FG30TG oil, without AP
Method: as §7
Polymers generated at the end of the stabilization experiment of fish oil with compound of formula (1) and AP are shown in Table 11.
Polymers are combination of complex compounds generated at the end of the oxidation cascade of unsaturated fatty acids and, they indicate the levels of overall oxidation of the matrix. The generation of such polymers in fish oil containing compound of formula (1) could be reduced considerably when AP was added as a synergistic compound (Table 11).

SMILES: Cc1cc(C(C)(C)C)c(O)c(C(C)(C)C)c1 [BHT, 3,5-di-tert-butyl-4-hydroxy-toluene, reference compound]
EV in poultry meal [1]: 1 | EV in Fish meal [2]: 1

Solubility in fish oil, 80° C. (Solubility in fish oil; Amount 0.5 mg/g): Soluble | Solubility in fish oil, Room temp. (Solubility in fish oil; Amount 0.5 mg/g): Soluble | Solubility in fish oil, 80° C. (Solubility in fish oil; Amount 2.0 mg/g): Soluble | Solubility in fish oil, Room temp. (Solubility in fish oil; Amount 2.0 mg/g): Soluble
SMILES: CC1=CC(C)(C)Oc2ccc(O)cc21 [Compound of formula (1), 2,2,4-trimethyl-2H-chromen-6-ol]
EV in poultry meal [1]: 1.10 | EV in Fish meal [2]: 0.94 | CD (conjugated dienoic acid in %) ([3]; 4 days): 0.8% | PV (peroxide value) ([3]; 4 days): 2 | p-AV (p-anisidine value) ([3]; 4 days): 4.4 | CD (conjugated dienoic acid in %) ([3]; 6 days): 0.8% | PV (peroxide value) ([3]; 6 days): 2.6 | p-AV (p-anisidine value) ([3]; 6 days): 7.2 | CD (conjugated dienoic acid in %) ([3]; 8 days): 0.9% | PV (peroxide value) ([3]; 8 days): 3.8 | p-AV (p-anisidine value) ([3]; 8 days): 6.8 | CD (conjugated dienoic acid in %) ([3]; 11 days): 0.9% | PV (peroxide value) ([3]; 11 days): 6.8 | p-AV (p-anisidine value) ([3]; 11 days): 7.6 | CD (conjugated dienoic acid in %) ([3]; 13 days): 0.8% | PV (peroxide value) ([3]; 13 days): 9.8 | p-AV (p-anisidine value) ([3]; 13 days): 8.1 | CD (conjugated dienoic acid in %) ([3]; 15 days): 0.8% | PV (peroxide value) ([3]; 17 days): 12.1 | p-AV (p-anisidine value) ([3]; 17 days): 8.5 | CD (conjugated dienoic acid in %) ([3]; Initial): 0.7% | PV (peroxide value) ([3]; Initial): 0.9 | p-AV (p-anisidine value) ([3]; Initial): 9.9 | OSI ([4]; Table 7, 0.5 mg/g in FG30TG fish oil, 80° C., air flow 40 psi): 5.95 h | OSI ([4]; Table 7, 2 mg/g in FG30TG fish oil, 80° C., air flow 40 psi): 6.73 h | Protection Factor (%) ([4]; Table 8, 0.5 mg/g in FG30TG fish oil): 25.26% | Protection Factor (%) ([4]; Table 8, 2 mg/g in FG30TG fish oil): 41.58% | OSI ([4]; Table 9, 2 mg/g in FG30TG fish oil, without AP): 5.70 h | Protection Factor (%) ([4]; Table 10, 2 mg/g in FG30TG fish oil, without AP): 23.1% | EV in pet food [5]: 0.97 | OSI ([6]; 0.5 mg/g added to crude algal oil already containing about 1.6 mg/g of MNT): 16.60 h | OSI ([6]; 2 mg/g added to crude algal oil already containing about 1.6 mg/g of MNT): 18.55 h | Polymers (%) [7]: 34.67%

SMILES: CC1(C)C=Cc2cc(O)ccc2O1 [Compound of formula (2), 2,2-dimethyl-2H-chromen-6-ol]
EV in poultry meal [1]: 1.11

SMILES: CC1=CC(C)(C)Oc2c(C)c(C)c(O)c(C)c21 [Compound of formula (3), 2,2,4,5,7,8-hexamethyl-2H-chromen-6-ol]
EV in Fish meal [2]: 0.89

SMILES: Cc1c(C)c2c(c(C)c1O)C=CC(C)(C)O2 [Compound of formula (4), 2,2,5,7,8-pentamethyl-2H-chromen-6-ol]
EV in Fish meal [2]: 1.10

SMILES: CCOc1ccc2c(c1)C(C)=CC(C)(C)O2 [Compound of formula (5), 6-ethoxy-2,2,4-trimethyl-2H-chromene]
EV in Fish meal [2]: 0.77

SMILES: O=c1ccc2cc(O)ccc2o1 [Compound of formula (6), 6-hydroxycoumarin]
EV in Fish meal [2]: 0.75

SMILES: Oc1ccc2c(c1)C=CCO2 [Compound of formula (7), 2H-chromen-6-ol]
EV in Fish meal [2]: 0.72

SMILES: Cc1c(C)c2c(c(C)c1O)CC[C@@](C)(CCC[C@H](C)CCC[C@H](C)CCCC(C)C)O2 [alpha-tocopherol, reference compound]
EV in poultry meal [1]: 0.74 | EV in Fish meal [2]: 0.88 | EV in pet food [5]: 0.77
